From ChEMBL document CHEMBL1201862, “PubChem BioAssay data set” (2004)
Activity calls are given as the source filed them.

Tests used:
[1] = molecular target: T1, Methionyl-tRNA synthetase, putative (Trypanosoma brucei brucei, UniProt Q38C91); format: functional, Trypanosoma brucei brucei strain 927/4 GUTat10.1
T1 sequence (Q38C91 whole entry): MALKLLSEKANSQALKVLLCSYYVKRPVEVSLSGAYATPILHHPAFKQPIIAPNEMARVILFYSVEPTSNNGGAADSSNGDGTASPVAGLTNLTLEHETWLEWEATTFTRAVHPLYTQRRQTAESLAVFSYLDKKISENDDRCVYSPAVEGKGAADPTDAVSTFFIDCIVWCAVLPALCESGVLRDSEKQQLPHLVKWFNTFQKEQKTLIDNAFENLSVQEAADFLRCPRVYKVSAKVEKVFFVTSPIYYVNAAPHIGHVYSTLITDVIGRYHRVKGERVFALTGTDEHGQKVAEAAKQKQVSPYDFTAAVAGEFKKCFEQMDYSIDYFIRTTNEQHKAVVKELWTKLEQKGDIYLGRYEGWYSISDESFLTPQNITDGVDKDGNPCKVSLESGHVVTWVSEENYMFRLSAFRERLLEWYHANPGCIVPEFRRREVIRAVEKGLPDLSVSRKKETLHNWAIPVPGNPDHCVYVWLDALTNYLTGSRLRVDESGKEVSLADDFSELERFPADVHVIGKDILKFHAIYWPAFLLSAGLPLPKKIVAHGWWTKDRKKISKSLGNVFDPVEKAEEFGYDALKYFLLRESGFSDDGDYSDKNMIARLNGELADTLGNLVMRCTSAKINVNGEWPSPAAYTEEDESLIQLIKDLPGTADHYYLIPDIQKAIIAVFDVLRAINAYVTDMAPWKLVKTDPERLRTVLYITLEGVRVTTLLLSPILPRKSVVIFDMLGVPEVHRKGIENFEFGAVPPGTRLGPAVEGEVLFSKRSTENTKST

[2] = molecular target: T1, Methionyl-tRNA synthetase, putative; format: functional, Trypanosoma brucei brucei strain 927/4 GUTat10.1; remark: listed apart in the source
[3] = Counterscreen for inhibitors of Trypanosoma brucei methionyl tRNA synthetase (MetRS): Luminescence-based cell-based high throughput dose response assay to identify compounds that are cytotoxic to Jurkat human T lymphocyte cells.; format: functional
[4] = molecular target: T2, Small ubiquitin-related modifier 1 (Homo sapiens, UniProt P63165); test: inhibitors of SUMO1 peptide binding, dose response, biochemical, fluorescence polarization, uHTS hits (AID 624382); format: functional; conditions: read-out: IC50_Mean
Fatty acid synthase [5] = molecular target: T3, Fatty acid synthase (Homo sapiens, UniProt P49327); test: FAS thioesterase domain inhibitors, dose response, biochemical, endpoint fluorescence intensity, uHTS hits (AID 624327); format: functional;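 further: fluorescence from hydrolysis of an O-methyl fluorescein acyl ester substrate by the enzyme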
T3 sequence (P49327 whole entry, the tested form may be a part): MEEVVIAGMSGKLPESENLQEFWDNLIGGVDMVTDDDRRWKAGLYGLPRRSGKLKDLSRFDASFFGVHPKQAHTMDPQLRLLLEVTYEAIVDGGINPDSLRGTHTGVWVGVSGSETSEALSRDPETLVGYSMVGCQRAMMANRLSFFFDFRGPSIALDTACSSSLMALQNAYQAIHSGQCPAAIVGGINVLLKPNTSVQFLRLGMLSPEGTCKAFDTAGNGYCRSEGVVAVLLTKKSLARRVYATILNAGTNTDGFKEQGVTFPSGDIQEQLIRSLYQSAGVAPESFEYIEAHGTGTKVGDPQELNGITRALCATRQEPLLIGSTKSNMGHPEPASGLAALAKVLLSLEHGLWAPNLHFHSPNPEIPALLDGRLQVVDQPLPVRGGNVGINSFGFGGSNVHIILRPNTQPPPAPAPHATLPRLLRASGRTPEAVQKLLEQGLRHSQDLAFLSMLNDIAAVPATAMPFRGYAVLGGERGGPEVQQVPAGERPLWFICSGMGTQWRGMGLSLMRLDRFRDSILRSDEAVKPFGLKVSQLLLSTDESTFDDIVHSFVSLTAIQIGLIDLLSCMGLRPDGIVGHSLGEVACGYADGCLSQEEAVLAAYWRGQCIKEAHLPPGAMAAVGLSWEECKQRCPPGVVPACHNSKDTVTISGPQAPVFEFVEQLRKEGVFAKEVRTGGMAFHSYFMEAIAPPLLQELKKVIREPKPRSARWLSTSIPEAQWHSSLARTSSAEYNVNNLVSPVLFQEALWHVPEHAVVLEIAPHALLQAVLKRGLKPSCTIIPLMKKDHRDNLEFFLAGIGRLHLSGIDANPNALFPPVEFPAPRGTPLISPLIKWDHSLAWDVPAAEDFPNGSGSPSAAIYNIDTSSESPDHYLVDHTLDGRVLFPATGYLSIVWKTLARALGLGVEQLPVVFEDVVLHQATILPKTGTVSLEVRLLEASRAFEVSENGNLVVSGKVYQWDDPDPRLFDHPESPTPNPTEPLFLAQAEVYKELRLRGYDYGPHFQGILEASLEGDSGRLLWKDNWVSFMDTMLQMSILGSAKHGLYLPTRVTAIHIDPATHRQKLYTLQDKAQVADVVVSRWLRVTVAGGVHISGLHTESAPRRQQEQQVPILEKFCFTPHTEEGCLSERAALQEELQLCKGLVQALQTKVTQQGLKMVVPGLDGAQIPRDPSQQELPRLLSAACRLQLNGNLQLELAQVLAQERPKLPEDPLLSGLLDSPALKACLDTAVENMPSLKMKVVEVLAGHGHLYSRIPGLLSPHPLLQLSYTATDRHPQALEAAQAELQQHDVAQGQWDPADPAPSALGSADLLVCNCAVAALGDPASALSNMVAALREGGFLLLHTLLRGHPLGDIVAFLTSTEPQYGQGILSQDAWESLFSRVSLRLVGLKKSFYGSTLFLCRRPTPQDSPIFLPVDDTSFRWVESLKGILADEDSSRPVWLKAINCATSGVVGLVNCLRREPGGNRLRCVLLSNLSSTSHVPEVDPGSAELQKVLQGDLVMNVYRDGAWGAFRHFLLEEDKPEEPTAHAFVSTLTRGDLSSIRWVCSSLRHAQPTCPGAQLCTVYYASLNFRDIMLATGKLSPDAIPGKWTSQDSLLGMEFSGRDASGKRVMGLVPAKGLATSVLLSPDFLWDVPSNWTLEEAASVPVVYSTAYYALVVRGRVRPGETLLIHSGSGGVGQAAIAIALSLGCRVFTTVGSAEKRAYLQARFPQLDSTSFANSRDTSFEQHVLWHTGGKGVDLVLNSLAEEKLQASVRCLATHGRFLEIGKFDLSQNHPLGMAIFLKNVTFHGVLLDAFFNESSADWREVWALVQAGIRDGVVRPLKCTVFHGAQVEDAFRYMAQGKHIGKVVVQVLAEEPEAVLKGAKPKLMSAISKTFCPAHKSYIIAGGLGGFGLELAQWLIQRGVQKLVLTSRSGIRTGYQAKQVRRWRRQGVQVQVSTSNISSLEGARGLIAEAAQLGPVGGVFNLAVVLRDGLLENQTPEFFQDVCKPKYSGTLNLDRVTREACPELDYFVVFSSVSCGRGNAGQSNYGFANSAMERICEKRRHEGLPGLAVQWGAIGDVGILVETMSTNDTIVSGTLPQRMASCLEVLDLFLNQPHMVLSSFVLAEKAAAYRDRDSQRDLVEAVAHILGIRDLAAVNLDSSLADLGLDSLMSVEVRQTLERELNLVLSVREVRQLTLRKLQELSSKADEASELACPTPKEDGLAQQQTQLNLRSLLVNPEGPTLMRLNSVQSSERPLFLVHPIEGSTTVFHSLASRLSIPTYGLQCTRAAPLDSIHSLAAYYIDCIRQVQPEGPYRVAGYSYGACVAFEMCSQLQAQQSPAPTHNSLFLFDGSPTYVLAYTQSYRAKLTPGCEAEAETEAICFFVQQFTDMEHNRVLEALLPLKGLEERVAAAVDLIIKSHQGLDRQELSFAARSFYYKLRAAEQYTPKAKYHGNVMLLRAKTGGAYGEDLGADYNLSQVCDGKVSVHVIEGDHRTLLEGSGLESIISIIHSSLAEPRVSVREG

[6] = ARNT/TACC3 interaction disruptors, potency, confirmation, biochemical, AlphaScreen, cherry-picked samples (AID 651703); format: functional, Homo sapiens;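 further: His-tagged ARNT PAS-B domain paired with GST-TACC3 E629A dimer coactivator fragment; potency of inhibitors that break up the complex and lower AlphaScreen signal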
[7] = molecular target: T4, Histone-lysine N-methyltransferase NSD2 (Homo sapiens, UniProt O96028); format: biochemical
T4 sequence (O96028 whole entry): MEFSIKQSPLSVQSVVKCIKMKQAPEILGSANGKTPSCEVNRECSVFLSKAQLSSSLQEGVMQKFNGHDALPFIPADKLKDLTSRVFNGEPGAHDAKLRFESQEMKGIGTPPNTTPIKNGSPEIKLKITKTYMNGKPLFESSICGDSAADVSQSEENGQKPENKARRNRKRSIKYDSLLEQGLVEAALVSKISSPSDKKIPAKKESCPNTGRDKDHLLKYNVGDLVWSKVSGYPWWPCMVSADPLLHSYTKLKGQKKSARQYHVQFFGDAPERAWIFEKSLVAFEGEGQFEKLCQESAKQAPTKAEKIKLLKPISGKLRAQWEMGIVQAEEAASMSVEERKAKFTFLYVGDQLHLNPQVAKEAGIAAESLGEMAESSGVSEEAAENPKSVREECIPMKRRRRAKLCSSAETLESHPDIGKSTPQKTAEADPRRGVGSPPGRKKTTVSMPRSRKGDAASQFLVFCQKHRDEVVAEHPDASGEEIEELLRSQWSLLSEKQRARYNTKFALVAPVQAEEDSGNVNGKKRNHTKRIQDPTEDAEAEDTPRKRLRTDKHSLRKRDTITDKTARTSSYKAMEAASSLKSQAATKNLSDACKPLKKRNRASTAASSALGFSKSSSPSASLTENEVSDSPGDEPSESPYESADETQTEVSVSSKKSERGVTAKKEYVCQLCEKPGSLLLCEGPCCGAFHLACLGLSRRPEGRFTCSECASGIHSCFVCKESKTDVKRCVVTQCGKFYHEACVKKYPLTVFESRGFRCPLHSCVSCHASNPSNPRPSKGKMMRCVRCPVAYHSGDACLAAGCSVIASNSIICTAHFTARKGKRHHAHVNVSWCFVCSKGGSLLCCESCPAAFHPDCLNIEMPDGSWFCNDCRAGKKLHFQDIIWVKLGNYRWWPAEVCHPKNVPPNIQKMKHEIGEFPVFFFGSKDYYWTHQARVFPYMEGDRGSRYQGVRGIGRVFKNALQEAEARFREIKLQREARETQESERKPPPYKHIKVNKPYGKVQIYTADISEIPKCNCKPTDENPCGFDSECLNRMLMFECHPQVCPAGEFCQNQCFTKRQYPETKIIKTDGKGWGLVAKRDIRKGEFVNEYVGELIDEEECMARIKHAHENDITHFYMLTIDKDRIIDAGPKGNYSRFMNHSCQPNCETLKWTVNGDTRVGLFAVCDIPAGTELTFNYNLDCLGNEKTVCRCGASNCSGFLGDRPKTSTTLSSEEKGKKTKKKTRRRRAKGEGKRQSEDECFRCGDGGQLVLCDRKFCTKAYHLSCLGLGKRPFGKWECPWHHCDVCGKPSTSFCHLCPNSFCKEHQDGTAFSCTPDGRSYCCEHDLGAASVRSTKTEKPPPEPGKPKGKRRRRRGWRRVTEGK

Caspase-6 = molecular target: T5, Caspase-6 (Homo sapiens, UniProt P55212); test: human caspase-6 inhibitors, dose response, biochemical, VEID-R110 fluorescence, cherry-pick (AID 720632)
T5 sequence (P55212 whole entry): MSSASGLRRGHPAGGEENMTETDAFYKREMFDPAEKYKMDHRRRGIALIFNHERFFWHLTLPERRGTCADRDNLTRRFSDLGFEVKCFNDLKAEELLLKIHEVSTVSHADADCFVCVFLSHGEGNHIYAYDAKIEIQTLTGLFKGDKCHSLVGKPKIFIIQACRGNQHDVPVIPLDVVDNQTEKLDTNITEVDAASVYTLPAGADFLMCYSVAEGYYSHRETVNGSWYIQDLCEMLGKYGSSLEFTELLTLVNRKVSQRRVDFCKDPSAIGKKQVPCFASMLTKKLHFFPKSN

[8] = molecular target: T2, Small ubiquitin-related modifier 1; test: inhibitors of SUMO1 partner interactions, dose response, biochemical, FRET (AID 624383); format: functional; conditions: read-out: IC50_Mean
Fatty acid synthase [9] = molecular target: T3, Fatty acid synthase; test: FAS thioesterase domain inhibitors, dose response, biochemical, kinetic fluorescence intensity (AID 624326); format: functional;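 further: rate of fluorescence rise from hydrolysis of a fluorogenic O-methyl fluorescein ester substrate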
Beta-galactosidase [10] = molecular target: T6, Beta-galactosidase (Escherichia coli, UniProt Q8VNN2); test: Dose response counterscreen for EBI2 assay utilizing the enzyme, b-galactosidase.; format: functional
T6 sequence (Q8VNN2 whole entry): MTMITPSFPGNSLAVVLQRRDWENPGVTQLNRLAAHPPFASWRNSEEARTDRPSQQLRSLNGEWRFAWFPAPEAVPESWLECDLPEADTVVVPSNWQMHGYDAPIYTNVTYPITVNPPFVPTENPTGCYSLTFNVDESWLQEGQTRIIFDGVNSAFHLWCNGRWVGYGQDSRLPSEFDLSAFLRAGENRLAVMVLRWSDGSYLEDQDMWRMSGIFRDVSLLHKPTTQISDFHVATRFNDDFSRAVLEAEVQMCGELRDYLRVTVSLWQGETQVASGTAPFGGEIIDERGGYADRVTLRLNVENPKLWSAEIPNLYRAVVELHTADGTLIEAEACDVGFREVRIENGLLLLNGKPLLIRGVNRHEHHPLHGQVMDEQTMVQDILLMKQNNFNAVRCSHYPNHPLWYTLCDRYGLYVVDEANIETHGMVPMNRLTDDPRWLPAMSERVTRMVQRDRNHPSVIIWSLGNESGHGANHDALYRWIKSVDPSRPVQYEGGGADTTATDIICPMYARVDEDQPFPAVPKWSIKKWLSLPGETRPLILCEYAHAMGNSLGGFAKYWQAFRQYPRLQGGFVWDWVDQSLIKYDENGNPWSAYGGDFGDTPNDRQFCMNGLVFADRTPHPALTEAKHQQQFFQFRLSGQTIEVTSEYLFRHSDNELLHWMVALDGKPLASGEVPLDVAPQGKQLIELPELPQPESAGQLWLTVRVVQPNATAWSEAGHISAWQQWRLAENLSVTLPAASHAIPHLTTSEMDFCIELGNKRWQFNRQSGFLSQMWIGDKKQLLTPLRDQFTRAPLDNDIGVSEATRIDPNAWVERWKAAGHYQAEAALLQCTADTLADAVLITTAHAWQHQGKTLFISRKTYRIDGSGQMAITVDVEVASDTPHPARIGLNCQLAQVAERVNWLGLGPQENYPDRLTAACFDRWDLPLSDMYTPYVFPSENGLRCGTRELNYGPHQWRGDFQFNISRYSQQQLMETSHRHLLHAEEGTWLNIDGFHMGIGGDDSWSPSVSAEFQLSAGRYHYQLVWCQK

Beta-galactosidase [11] = molecular target: T6, Beta-galactosidase; test: PubChem AID 485352; format: functional
[12] = molecular target: T7, Type-1 angiotensin II receptor (Homo sapiens, UniProt P30556); test: AT1 receptor antagonists, dose response, selectivity assay for APJ receptor antagonist project, cell-based, uHTS hits (AID 463214); format: functional;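 further: antagonist potency against angiotensin II stimulated AT1 response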
T7 sequence (P30556 whole entry): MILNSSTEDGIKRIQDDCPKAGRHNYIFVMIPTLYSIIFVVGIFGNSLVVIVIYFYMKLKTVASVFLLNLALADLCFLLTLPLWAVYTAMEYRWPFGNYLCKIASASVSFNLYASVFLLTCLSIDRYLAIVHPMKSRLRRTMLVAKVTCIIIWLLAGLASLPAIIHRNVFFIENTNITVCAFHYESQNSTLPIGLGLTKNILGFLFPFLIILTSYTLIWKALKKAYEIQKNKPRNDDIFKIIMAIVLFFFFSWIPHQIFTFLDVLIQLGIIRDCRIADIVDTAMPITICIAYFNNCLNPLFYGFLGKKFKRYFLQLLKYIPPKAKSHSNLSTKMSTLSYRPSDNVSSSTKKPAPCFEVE

[13] = molecular target: SWI/SNF-related matrix-associated actin-dependent regulator of chromatin subfamily A member 2 (Homo sapiens, UniProt P51531); test: Luminescence-based cell-based high throughput dose response assay to identify activators of the function of SWI/SNF related, matrix associated, actin dependent regulator of chromatin, subfamily a, member 2 (SMARCA2, BRM).; format: functional
SWI/SNF-related matrix-associated actin-dependent regulator of chromatin subfamily A member 2, sequence (P51531 whole entry): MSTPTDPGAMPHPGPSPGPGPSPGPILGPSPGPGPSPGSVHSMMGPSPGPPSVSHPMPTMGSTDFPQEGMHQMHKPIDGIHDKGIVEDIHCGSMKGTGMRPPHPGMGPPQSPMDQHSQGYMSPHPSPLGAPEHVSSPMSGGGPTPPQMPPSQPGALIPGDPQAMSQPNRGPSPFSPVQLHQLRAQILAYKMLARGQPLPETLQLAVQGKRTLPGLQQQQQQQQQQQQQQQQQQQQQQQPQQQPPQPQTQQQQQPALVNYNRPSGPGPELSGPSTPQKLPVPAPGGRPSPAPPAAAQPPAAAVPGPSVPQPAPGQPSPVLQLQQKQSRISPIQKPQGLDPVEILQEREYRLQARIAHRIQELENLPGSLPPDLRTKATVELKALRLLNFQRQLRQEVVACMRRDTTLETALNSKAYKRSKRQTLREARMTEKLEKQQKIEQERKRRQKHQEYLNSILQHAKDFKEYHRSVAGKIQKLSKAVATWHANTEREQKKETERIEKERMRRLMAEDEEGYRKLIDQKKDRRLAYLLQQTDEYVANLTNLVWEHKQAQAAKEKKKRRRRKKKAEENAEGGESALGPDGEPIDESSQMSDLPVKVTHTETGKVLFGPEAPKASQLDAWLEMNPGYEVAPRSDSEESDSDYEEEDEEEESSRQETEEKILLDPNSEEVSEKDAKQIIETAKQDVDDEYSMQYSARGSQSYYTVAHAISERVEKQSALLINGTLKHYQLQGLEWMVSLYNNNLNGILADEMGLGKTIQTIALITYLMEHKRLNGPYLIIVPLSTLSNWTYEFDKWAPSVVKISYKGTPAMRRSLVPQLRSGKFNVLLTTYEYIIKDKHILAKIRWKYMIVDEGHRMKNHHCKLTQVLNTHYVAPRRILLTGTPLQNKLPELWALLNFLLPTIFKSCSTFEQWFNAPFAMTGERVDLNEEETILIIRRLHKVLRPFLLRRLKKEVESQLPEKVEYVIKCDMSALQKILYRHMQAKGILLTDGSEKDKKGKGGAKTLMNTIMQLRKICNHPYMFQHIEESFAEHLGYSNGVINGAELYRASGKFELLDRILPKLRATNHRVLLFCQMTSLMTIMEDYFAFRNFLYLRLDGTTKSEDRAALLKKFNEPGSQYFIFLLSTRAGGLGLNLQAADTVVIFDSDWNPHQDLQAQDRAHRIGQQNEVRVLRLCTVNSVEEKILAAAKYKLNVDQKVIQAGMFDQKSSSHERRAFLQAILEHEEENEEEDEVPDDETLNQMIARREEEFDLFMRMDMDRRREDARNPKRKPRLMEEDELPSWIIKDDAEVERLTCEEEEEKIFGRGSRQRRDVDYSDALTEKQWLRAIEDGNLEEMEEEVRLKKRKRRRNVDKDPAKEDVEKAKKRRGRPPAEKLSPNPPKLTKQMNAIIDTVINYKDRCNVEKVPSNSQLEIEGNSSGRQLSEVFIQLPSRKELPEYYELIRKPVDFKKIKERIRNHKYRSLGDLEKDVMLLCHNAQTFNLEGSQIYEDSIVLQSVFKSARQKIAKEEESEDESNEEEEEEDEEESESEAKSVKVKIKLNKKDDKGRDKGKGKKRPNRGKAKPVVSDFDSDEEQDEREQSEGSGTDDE

[14] = molecular target: T8, Microphthalmia-associated transcription factor (Homo sapiens, UniProt O75030); test: TRPM1 promoter luciferase signal decrease, dose response, MITF inhibitor project, cell-based, SK-MEL-5, cherry-picked, set 3 (AID 493073); format: functional
T8 sequence (O75030 whole entry): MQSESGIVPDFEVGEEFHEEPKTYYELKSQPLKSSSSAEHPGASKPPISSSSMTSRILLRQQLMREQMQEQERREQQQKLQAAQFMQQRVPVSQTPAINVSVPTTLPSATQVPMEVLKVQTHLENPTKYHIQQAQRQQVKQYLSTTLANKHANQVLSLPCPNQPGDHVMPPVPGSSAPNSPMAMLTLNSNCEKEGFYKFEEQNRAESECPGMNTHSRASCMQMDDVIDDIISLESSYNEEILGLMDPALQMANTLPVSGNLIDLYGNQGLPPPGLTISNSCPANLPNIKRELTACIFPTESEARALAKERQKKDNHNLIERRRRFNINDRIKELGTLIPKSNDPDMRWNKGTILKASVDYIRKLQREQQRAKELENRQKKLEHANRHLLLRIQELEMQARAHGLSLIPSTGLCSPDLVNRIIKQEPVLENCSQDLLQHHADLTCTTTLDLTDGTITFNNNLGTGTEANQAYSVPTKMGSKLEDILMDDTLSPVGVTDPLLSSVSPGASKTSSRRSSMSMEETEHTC

[15] = Counterscreen for activators of the function of SWI/SNF related, matrix associated, actin dependent regulator of chromatin, subfamily a, member 2 (SMARCA2, BRM): Luminescence-based cell-based high throughput dose response assay to identify non-selective compounds using the VP16 reporter assay.; format: functional

In the case of N#Cc1ccc(CSc2nnc(Nc3ccccc3)s2)cc1, the IC50 [1] is reported as 119 µM (inactive), the IC50 [2] is reported as 7.66 µM (active) and the IC50 [3] is reported as 83.3 µM (inactive).
For N#Cc1cc2ccc(N3CCOCC3)cc2cc1C#N, the IC50 [4] was > 66.6 µM (inactive), the IC50 (Fatty acid synthase [5]) was 5.9 µM (active) and the AC50 [6] was 116 µM (active). For the same compound, the AC50 [7] was 3.05 µM (active), the AC50 (Caspase-6) was 29.9 µM (active) and the IC50 [8] was 100 µM (inactive). For the same compound, the IC50 (Fatty acid synthase [9]) was 4.31 µM (active).
In the case of Cc1ccc(C(=O)CNc2ccc(Br)cc2)cc1, the IC50 (Beta-galactosidase [10]) is reported as > 80 µM (inactive), the EC50 (Beta-galactosidase [11]) is reported as > 40 µM (inactive) and the IC50 [12] is reported as 7.47 µM (active).
In the case of CCN1CCN(c2ccc(S(=O)(=O)N3CCCCC3)cc2NC(=O)/C=C/c2ccc([N+](=O)[O-])cc2)CC1, the EC50 [13] is reported as > 91.2 µM (inactive), the AC50 [14] is reported as 7.51 µM (active) and the EC50 [15] is reported as > 91.2 µM (inactive).
With N#C/C(=N/Nc1ccccc1F)C(=N)N1CCOCC1 the EC50 [13] was > 91.2 µM (inactive) and the EC50 [15] was > 91.2 µM (inactive).
